Laboratory results from patent publication US8367830B2, “Methods for the identification of phosphatidylinositol kinase interacting molecules and for the purification of phosphatidylinositol kinase proteins” (Cellzome AG, priority 2009, dated 2013).

Tests used:
BIKE = target: T1, BIKE (Homo sapiens, UniProt Q9NSY1); assay: Kinobeads competition binding, immobilized CZC31207, Jurkat/Ramos lysate mix; settings: 10 μM free compound; mix of Jurkat and Ramos cell lysates
T1 construct: endogenous in cells; host or cells: mix of Jurkat and Ramos cell lysates
Method: (§1) To the first aliquot of cell lysate 10 μM of the free compound CZC31207 was added and allowed to bind to proteins in the lysate. Then the affinity matrix with the immobilized compound was added to capture proteins that were not interacting with the previously added free compound. Beads were separated from the lysate and bead bound proteins were eluted in SDS sample buffer and subsequently separated by SDS-Polyacrylamide gel electrophoresis (FIG. 5). Suitable gel bands were cut out and subjected to in-gel proteolytic digestion with trypsin. The second lysate aliquot was processed identically, however no free compound was added (DMSO solvent control). Peptides originating from samples 1 and 2 were labeled with iTRAQ reagents (iTRAQ 114 and iTRAQ 116) and the combined samples were analyzed with a nano-flow liquid chromatography system coupled online to a tandem mass spectrometer (LC-MS/MS) experiment followed by iTRAQ reporter ion quantification in the MS/MS spectra as described in Example 2.
(§2) Jurkat cells (ATCC number T1B-152) and Ramos cells (ATCC number CRL-1596) were either obtained from an external supplier (CIL SA, Mons, Belgium) or grown in one litre Spinner flasks (Integra Biosciences, #182101) in suspension in RPMI 1640 medium (Invitrogen, #21875-034) supplemented with 10% Fetal Bovine Serum (Invitrogen, #10270-106) at a density between 0.2×10^6 and 1.0×10^6 cells/ml. Cells were harvested by centrifugation, washed once with 1×PBS buffer (Invitrogen, #14190-094) and cell pellets were frozen in liquid nitrogen and subsequently stored at −80° C.
(§3) The identified kinases are shown in Table 5 including the percent competition values for the sample to which 10 μM free compound had been added. In total of 20 different kinases were identified and competed by different degrees.

PIP5K2A = target: T2, PIP5K2A (Homo sapiens, UniProt P48426); assay: as above; settings: 10 μM free compound; mix of Jurkat and Ramos cell lysates
T2 construct: endogenous in cells
Method: as §1, §2, §3

CaMK2d = target: T3, CaMK2d (Homo sapiens, UniProt Q13557); assay: as above; settings: 10 μM free compound; mix of Jurkat and Ramos cell lysates
T3 construct: endogenous in cells; host or cells: mix of Jurkat and Ramos cell lysates
Method: as §1, §2, §3

PIK3C3 = target: T4, PIK3C3 (Homo sapiens, UniProt Q8NEB9); assay: as above; settings: 10 μM free compound; mix of Jurkat and Ramos cell lysates
T4 construct: endogenous in cells; host or cells: mixed lysate of Jurkat and Ramos cells
Method: as §1, §2, §3

CDK6 = target: T5, CDK6 (Homo sapiens, UniProt Q00534); assay: as above; settings: 10 μM free compound; mix of Jurkat and Ramos cell lysates
T5 construct: endogenous in cells; host or cells: mixed lysate of Jurkat and Ramos cells
Method: as §1, §2, §3

MST1 = target: T6, MST1 (Homo sapiens, UniProt Q13043); assay: as above; settings: 10 μM free compound; mix of Jurkat and Ramos cell lysates
T6 construct: endogenous in cells; host or cells: mixed lysate of Jurkat and Ramos cells
Method: as §1, §2, §3

CDC2 = target: T7, CDC2 (Homo sapiens, UniProt P06493); assay: as above; settings: 10 μM free compound; mix of Jurkat and Ramos cell lysates
T7 construct: endogenous in cells; host or cells: mixed lysate of Jurkat and Ramos cells
Method: as §1, §2, §3

PKD2 = target: T8, PKD2 (Homo sapiens, UniProt Q9BZL6); assay: as above; settings: 10 μM free compound; mix of Jurkat and Ramos cell lysates
T8 construct: endogenous in cells; host or cells: mixed lysate of Jurkat and Ramos cells
Method: as §1, §2, §3

PIK4C2B = target: T9, PIK4C2B (Homo sapiens, UniProt Q8TCG2); assay: as above; settings: 10 μM free compound; mix of Jurkat and Ramos cell lysates
T9 construct: endogenous in cells; host or cells: mixed lysate of Jurkat and Ramos cells
Method: as §1, §2, §3

PIK3Cd = PIK3Cd (Homo sapiens, UniProt O00329); assay: Kinobeads competition binding, immobilized CZC31207, HeLa/placenta lysate mix; set-up: endogenous in cells; host or cells: mixed lysate of HeLa cells and placenta; settings: 10 μM free compound; mixed HeLa and placenta cell lysates
Method: (§4) To the first aliquot of cell lysate 10 μM of the free compound (CZC31207) was added and allowed to bind to proteins in the lysate. Then the affinity matrix with the immobilized compound (Example 1) was added to capture proteins that were not interacting with the previously added free compound. Beads were separated from the lysate and bead bound proteins were eluted in SDS sample buffer and subsequently separated by SDS-Polyacrylamide gel electrophoresis (FIG. 4). Suitable gel bands were cut out and subjected to in-gel proteolytic digestion with trypsin. The second lysate aliquot was processed identically, however no free compound was added (DMSO solvent control). Peptides originating from samples 1 and 2 were labeled with iTRAQ reagents (iTRAQ 115 and iTRAQ 117) and the combined samples were analyzed with a nano-flow liquid chromatography system coupled online to a tandem mass spectrometer (LC-MS/MS) experiment followed by iTRAQ reporter ion quantification in the MS/MS spectra (Ross et al., 2004. Mol. Cell. Proteomics 3(12):1154-1169). Further experimental protocols can be found in WO2006/134056 and a previous publication (Bantscheff et al., 2007. Nature Biotechnology 25, 1035-1044).
(§5) Cells were homogenized in a Potter S homogenizer in lysis buffer: 50 mM Tris-HCl, 0.8% NP40, 5% glycerol, 150 mM NaCl, 1.5 mM MgCl2, 25 mM NaF, 1 mM sodium vanadate, 1 mM DTT, pH 7.5. One complete EDTA-free tablet (protease inhibitor cocktail, Roche Diagnostics, 1 873 580) per 25 ml buffer was added. The material was dounced 20 times using a mechanized POTTER S, transferred to 50 ml falcon tubes, incubated for 30 minutes rotating at 4° C. and spun down for 10 minutes at 20,000×g at 4° C. (10,000 rpm in Sorvall SLA600, precooled). The supernatant was transferred to an ultracentrifuge (UZ)-polycarbonate tube (Beckmann, 355654) and spun for 1 hour at 145.000×g at 4° C. […] The supernatant was transferred again to a fresh 50 ml falcon tube, the protein concentration was determined by a Bradford assay (BioRad) and samples containing 50 mg of protein per aliquot were prepared. […]

FRAP = FRAP (Homo sapiens, UniProt P42345); assay: as above; set-up: endogenous in cells; host or cells: mixed lysate of HeLa cells and placenta; settings: 10 μM free compound; mixed HeLa and placenta cell lysates
Method: as §4, §5

DNAPK = DNAPK (Homo sapiens, UniProt P78527); assay: as above; set-up: endogenous in cells; host or cells: mixed lysate of HeLa cells and placenta; settings: 10 μM free compound; mixed HeLa and placenta cell lysates
Method: as §4, §5

PIK3Cb = PIK3Cb (Homo sapiens, UniProt P42338); assay: as above; set-up: endogenous in cells; host or cells: mix of HeLa cell lysate and placenta lysate; settings: 10 μM free compound; mixed HeLa and placenta cell lysates
Method: as §4
(§6) Cells were homogenized in a Potter S homogenizer in lysis buffer: 50 mM Tris-HCl, 0.8% NP40, 5% glycerol, 150 mM NaCl, 1.5 mM MgCl2, 25 mM NaF, 1 mM sodium vanadate, 1 mM DTT, pH 7.5. One complete EDTA-free tablet (protease inhibitor cocktail, Roche Diagnostics, 1 873 580) per 25 ml buffer was added. The material was dounced 20 times using a mechanized POTTER S, transferred to 50 ml falcon tubes, incubated for 30 minutes rotating at 4° C. and spun down for 10 minutes at 20,000×g at 4° C. (10,000 rpm in Sorvall SLA600, precooled). The supernatant was transferred to an ultracentrifuge (UZ)-polycarbonate tube (Beckmann, 355654) and spun for 1 hour at 145.000×g at 4° C. (40.000 rpm in Ti50.2, precooled). The supernatant was transferred again to a fresh 50 ml falcon tube, the protein concentration was determined by a Bradford assay (BioRad) and samples containing 50 mg of protein per aliquot were prepared. The samples were immediately used for experiments or frozen in liquid nitrogen and stored frozen at −80° C.
(§7) Sepharose-beads with the immobilized compound (100 μl beads per pull-down experiment) were equilibrated in lysis buffer and incubated with a cell lysate sample containing 50 mg of protein on an end-over-end shaker (Roto Shake Genie, Scientific Industries Inc.) for 2 hours at 4° C. Beads were collected, transferred to Mobicol-columns (MoBiTech 10055) and washed with 10 ml lysis buffer containing 0.4% NP40 detergent, followed by 5 ml lysis buffer containing 0.2% detergent. To elute bound proteins, 60 μl 2×SDS sample buffer was added to the column. […]

PIK3Cg = PIK3Cg (Homo sapiens, UniProt P48736); assay: as above; set-up: endogenous in cells; host or cells: mix of HeLa cell lysate and placenta lysate; settings: 10 μM free compound; mixed HeLa and placenta cell lysates
Method: as §4, §6, §7

NEK2 = NEK2 (Homo sapiens, UniProt P51955); assay: as above; set-up: endogenous in cells; host or cells: mix of HeLa cell lysate and placenta lysate; settings: 10 μM free compound; mixed HeLa and placenta cell lysates
Method: as §4, §6, §7

PIP5K2C = PIP5K2C (Homo sapiens, UniProt Q8TBX8); assay: as above; set-up: endogenous in cells; host or cells: mix of HeLa cell lysate and placenta lysate; settings: 10 μM free compound; mixed HeLa and placenta cell lysates
Method: as §4, §6, §7

PIK4Ca = PIK4Ca (Homo sapiens, UniProt P42356); assay: as above; set-up: endogenous in cells; settings: 10 μM free compound; mixed HeLa and placenta cell lysates
Method: as §4, §6, §7

CaMK2g = CaMK2g (Homo sapiens, UniProt Q13555); assay: as above; set-up: endogenous in cells; settings: 10 μM free compound; mixed HeLa and placenta cell lysates
Method: as §4, §6, §7

MAP3K1 = MAP3K1 (Homo sapiens, UniProt Q13233); assay: as above; set-up: endogenous in cells; settings: 10 μM free compound; mixed HeLa and placenta cell lysates
Method: as §4, §6, §7

T5 sequence (Q00534 whole entry): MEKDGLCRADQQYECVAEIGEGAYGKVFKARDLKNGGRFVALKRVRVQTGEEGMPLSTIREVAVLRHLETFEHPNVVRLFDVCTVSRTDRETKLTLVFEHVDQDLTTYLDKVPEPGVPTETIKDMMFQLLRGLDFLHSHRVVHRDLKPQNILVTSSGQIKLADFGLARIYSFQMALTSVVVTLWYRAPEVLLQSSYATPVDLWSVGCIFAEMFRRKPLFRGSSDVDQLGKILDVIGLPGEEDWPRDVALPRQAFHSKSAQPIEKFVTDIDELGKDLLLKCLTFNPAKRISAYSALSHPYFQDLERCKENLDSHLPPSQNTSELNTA
T6 sequence (Q13043 whole entry): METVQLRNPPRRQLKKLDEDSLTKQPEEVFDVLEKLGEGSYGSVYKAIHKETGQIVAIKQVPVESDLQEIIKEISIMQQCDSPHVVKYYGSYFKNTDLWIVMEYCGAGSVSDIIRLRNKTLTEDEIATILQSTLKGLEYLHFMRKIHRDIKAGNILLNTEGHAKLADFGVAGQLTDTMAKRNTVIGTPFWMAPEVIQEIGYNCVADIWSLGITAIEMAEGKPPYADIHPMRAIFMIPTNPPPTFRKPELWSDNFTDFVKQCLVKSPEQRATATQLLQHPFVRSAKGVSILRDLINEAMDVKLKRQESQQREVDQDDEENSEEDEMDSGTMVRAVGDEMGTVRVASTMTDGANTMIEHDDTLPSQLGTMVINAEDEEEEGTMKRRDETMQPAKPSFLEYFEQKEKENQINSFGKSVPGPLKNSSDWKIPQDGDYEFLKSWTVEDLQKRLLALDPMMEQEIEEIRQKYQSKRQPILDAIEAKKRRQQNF
T9 sequence (Q8TCG2 whole entry): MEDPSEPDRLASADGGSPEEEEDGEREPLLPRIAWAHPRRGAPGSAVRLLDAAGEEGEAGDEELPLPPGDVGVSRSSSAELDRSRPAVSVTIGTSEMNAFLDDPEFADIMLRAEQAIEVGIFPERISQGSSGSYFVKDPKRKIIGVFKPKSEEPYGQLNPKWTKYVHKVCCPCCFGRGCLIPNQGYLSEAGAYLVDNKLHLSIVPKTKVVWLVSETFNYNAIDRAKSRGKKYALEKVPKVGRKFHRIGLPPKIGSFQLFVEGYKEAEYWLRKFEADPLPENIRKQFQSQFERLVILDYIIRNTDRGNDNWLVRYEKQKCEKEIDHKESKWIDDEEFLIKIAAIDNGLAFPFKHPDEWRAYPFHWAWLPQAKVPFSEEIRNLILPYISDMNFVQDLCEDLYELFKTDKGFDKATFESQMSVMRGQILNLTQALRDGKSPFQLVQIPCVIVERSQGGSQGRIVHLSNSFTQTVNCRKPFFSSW
Sequence of PIP5K2C (Q8TBX8 whole entry): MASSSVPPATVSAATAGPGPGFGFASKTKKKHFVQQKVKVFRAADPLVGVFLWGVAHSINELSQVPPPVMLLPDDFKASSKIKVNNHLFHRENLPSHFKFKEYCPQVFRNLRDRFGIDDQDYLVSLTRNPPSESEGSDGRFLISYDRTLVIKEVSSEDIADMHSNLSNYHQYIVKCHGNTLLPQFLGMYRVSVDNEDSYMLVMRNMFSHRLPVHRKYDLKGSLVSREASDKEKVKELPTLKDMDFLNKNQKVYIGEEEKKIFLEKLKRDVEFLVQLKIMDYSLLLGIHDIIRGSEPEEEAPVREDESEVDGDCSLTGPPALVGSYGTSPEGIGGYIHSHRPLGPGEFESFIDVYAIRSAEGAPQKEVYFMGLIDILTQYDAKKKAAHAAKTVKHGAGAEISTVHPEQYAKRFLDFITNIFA
Sequence of PIK3Cg (P48736 whole entry): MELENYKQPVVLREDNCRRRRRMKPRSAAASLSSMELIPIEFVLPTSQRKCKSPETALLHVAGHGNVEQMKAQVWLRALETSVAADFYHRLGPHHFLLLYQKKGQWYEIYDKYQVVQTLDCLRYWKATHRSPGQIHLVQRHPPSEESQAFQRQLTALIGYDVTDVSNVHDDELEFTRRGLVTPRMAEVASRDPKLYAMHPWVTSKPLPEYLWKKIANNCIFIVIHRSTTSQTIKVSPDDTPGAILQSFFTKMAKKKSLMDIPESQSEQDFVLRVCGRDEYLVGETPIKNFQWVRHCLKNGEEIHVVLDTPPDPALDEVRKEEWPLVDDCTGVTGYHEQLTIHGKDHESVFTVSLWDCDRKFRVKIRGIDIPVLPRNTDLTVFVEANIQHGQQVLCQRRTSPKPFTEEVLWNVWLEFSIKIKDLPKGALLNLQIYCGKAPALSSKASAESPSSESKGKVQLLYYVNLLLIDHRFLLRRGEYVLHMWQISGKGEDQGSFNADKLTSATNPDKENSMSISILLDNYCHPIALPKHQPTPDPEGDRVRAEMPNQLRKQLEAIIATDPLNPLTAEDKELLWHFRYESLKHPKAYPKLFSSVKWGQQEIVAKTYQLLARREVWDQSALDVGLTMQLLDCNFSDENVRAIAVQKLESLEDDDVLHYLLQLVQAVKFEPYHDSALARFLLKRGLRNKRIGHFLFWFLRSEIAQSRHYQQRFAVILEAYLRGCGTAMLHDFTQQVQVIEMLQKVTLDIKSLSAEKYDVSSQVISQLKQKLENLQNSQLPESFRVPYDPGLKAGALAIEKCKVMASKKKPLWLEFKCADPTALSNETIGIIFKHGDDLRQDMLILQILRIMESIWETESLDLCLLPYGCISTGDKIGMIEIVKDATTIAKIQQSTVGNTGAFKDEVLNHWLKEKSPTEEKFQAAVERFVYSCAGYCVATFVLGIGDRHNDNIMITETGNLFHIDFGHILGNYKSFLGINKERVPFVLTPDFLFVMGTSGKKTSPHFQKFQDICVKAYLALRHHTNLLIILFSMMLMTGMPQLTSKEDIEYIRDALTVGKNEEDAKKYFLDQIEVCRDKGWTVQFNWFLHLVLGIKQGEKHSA
Sequence of PIK4Ca (P42356 whole entry): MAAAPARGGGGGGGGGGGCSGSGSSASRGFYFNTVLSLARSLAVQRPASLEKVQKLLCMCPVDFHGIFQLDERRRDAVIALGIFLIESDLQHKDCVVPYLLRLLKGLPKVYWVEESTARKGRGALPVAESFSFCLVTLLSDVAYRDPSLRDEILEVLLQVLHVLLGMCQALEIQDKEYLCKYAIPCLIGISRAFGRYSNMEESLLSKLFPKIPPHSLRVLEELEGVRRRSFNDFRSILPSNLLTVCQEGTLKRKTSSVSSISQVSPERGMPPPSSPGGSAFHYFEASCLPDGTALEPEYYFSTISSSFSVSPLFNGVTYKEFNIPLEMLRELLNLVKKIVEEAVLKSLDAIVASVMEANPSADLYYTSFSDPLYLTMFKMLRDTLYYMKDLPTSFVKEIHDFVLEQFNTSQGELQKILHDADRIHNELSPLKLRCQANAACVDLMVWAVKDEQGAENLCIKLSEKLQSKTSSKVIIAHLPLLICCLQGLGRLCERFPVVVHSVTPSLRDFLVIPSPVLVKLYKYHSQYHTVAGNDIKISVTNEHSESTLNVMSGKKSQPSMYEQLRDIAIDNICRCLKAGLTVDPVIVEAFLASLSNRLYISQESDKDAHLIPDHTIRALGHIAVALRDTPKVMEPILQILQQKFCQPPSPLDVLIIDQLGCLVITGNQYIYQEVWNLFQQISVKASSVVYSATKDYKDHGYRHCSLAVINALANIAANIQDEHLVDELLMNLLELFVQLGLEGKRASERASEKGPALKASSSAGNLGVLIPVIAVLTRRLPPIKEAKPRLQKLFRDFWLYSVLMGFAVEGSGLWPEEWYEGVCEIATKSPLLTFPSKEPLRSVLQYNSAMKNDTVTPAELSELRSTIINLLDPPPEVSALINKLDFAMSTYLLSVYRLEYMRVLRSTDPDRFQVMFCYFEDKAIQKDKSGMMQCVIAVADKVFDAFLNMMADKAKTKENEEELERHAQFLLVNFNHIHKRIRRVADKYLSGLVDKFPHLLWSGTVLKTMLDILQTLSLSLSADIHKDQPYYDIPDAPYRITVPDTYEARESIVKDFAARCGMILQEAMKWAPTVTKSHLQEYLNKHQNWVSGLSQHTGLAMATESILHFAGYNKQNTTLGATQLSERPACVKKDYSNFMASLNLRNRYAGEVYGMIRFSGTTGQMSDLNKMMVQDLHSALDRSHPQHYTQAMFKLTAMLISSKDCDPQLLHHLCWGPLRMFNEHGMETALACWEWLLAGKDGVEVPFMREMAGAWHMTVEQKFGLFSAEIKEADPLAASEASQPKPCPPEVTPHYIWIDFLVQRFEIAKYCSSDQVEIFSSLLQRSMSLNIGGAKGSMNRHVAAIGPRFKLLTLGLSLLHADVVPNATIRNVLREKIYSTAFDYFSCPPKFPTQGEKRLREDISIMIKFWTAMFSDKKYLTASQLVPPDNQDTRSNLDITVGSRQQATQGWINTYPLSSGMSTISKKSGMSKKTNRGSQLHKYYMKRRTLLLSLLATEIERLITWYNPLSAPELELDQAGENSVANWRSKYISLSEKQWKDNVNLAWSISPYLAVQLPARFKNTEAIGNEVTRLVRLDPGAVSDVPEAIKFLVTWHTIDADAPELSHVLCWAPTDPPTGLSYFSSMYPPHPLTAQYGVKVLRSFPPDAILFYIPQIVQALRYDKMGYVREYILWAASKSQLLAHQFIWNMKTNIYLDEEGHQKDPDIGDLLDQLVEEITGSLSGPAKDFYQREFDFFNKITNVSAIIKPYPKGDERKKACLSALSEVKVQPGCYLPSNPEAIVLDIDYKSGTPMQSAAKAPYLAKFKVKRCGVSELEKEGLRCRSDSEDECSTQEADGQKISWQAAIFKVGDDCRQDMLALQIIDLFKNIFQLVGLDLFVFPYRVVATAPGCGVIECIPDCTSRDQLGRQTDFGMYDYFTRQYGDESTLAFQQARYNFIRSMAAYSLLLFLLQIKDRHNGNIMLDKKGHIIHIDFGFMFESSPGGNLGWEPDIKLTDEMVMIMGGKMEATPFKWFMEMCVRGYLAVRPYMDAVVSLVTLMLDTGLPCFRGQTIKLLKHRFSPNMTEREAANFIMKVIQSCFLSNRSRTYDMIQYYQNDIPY

- Competition % BIKE (BIKE): 26.1%
- Competition % PIP5K2A (PIP5K2A): 68.5%
- Competition % CaMK2d (CaMK2d): −1.3%
- Competition % PIK3C3 (PIK3C3): 52.4%
- Competition % CDK6 (CDK6): −1.6%
- Competition % MST1 (MST1): 24.5%
- Competition % CDC2 (CDC2): 34.1%
- Competition % PKD2 (PKD2): 37.9%
- Competition % PIK4C2B (PIK4C2B): 20.3%
- Competition % PIK3Cd (PIK3Cd): 83.6%
- Competition % FRAP (FRAP): 25.9%
- Competition % DNAPK (DNAPK): 35.3%
- Competition % PIK3Cb (PIK3Cb): 85.6%
- Competition % PIK3Cg (PIK3Cg): 80%
- Competition % NEK2 (NEK2): 40.4%
- Competition % PIP5K2C (PIP5K2C): 78.3%
- Competition % PIK4Ca (PIK4Ca): 39.9%
- Competition % CaMK2g (CaMK2g): 15.2%
- Competition % MAP3K1 (MAP3K1): 13.3%
Compound: CC(C)NS(=O)(=O)c1cncc(-c2ccc3nc(NC(=O)NCCN)nn3c2)c1 [CZC31207, 5-(2-(3-(2-aminoethyl)ureido)-[1,2,4]triazolo[1,5-a]pyridin-6-yl)-N-isopropylpyridine-3-sulfonamide]
